Source: patent US12459914B2, “Compounds and compositions for the treatment of tumors” (FONDAZIONE ISTITUTO ITALIANO DI TECNOLOGIA, priority 2019, dated 2025)

Tests used:
BRC4/RAD51 interaction = molecular target: T1, BRC4/RAD51 interaction (Homo sapiens, UniProt Q06609); test: Competitive ELISA assay, disruption of BRC4/RAD51 interaction; type: binding; details: human Rad51, biotinylated BRC4 peptide
T1 construct: purchased Creative Biomart (Rad51); Life Technologies (BRC4 peptide)
T1 sequence (Q06609 1-339): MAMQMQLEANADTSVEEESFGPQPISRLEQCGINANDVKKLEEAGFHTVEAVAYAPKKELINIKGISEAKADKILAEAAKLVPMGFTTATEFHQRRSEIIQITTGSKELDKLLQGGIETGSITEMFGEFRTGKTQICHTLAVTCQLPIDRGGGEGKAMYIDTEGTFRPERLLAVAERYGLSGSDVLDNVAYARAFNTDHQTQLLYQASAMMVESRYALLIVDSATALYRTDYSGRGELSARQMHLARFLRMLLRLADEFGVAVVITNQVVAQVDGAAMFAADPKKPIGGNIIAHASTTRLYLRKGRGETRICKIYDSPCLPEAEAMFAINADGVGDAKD
Method: A competitive ELISA screening assay using biotinylated BRC4 peptide to disrupt the BRC4/RAD51 interaction was performed by modifying the method described by Rajendra et al. (Nucleic Acids Res. 38 (2010) 82-96). BRC4-biotinylated peptide (N-term Biotin[…] from Life Technologies) was used to coat 384-well plates (Nunc). After washing with PBS containing 0.05% Tween-20 (PBST), and blocking with the solution BSA 1%/PBST, overnight hybridization with human Rad51 protein (NP_002866 Creative Biomart, NY) was performed. Test compounds were added in dose-response from […] in triplicate with constant DMSO 1%. Antibody raised against Rad51 (Millipore) and HRP-secondary antibody staining to develop the 3,30,5,50-tetramethyllbenzidine signal (Sigma) quenched with 1M HCl was used as the assay readout. Colorimetric measure was read on Victor5 (PerkinElmer) plate Reader. BRC4 and Rad51 were included in the assay as positive control. Results were analyzed using GraphPad Software.

BxPC-3 cells [1] = test: Cell viability assay (CellTiter Glo); type: cell-based; details: Homo sapiens, 72 h
Method: (§1) BxPC-3 cells were grown in RPMI 1640 containing 10% FBS, 100 U/ml penicillin/streptomycin, 2 mM glutamine. All media and supplements were from Sigma-Aldrich. Cultures were routinely tested for Mycoplasma contamination. Treatments (Olaparib and BRCA2-Rad51 disruptors) were administered in culture medium supplemented with 0.6% DMSO. The same amount of DMSO was added to the control, untreated cultures.
(§2) Cell viability was assessed by CellTiter Glo, Luminescent Cell Viability Assay. Briefly, BxPC-3 cells (1×10^4/well) were plated in white 96-well plates with clear bottom and treated for 72 h with olaparib (10 μM) or with the BRCA2-Rad51 disruptors, given alone or in combination. After treatments, the plate was allowed to equilibrate at room temperature for 30 min and the CellTiter-Glo reactive was directly added to each well. The plate was kept on a shaker for 2 min to induce cell lysis and its luminescence was measured by using a Fluoroskan Ascent FL reader (Labsystems) using manufacturer's instructions.

[2] = test system: Homologous recombination (HR) in BxPC3 cells; test: Homologous recombination assay (HR); type: cell-based; details: Homo sapiens; for inhibition at 20 µM: BXPC-3, at 20 μM
Method: Homologous recombination (HR) was assessed by using a commercially available assay (Norgen). This assay is based on cell co-transfection with two plasmids that, upon cells entering, recombinate. The efficiency of HR can be assessed by real time PCR, using primer mixtures included in the assay kit. Different primer mixtures allow differentiation between the original plasmid backbones and their recombination product.
BxPC3 cells (2×10^3 per well) were seeded in a 24-well plate and allowed to adhere overnight. Co-transfection with the two plasmids was performed in Lipofectamine 2000 (Invitrogen) for 5 h, according to the manufacturer's instructions. During transfection cells were exposed at different doses of BRCA2-Rad51 disruptors, dissolved in RPMI without serum in the presence of 0.6% DMSO.
After washing with PBS, cells were harvested, and DNA was isolated using QIAamp® DNA Mini Kit (Qiagen). Sample concentration was measured using an ONDA Nano Genius photometer.
The thermal cycler (CFX96 ™ Real Time System, BioRad) was programmed as follows: initial denaturation 95° C. for 3 min then 95° C. for 15 sec., 61° C. for 30 sec., 72° C. for 1 min and repeated for 40 cycles. Melt curve analysis was done. Samples were run in triplicate, in 10 μl reaction volume containing 25 ng of template.
In each DNA sample from control and treated cultures, the ΔCt between the recombination product and the backbone plasmids was calculated. HR efficiency was evaluated from the 2^−ΔΔ^Ct value obtained by comparing treated vs control samples.

BxPC-3 cells [3] = test: Association with olaparib (given alone or in combination), cell viability / cytotoxicity; type: cell-based; details: olaparib 10 μM, 72 h
Method: as §1, §2
Cell death was assessed by applying the CellTox™ Green Cytotoxicity assay (Promega). Briefly, BxPC-3 (1×10^4/well) were plated in black 96-well plates with clear bottom and treated for 72 h with olaparib (10 μM) or with the BRCA2-Rad51 disruptors, given alone or in combination. At the end of treatment, the CellTox™ dye was added to cell cultures and the green fluorescence signal, which is produced by the binding interaction with dead cell DNA, was measured following the manufacturer's instructions. The fluorescence signal was detected using the EnSpire 2300 Multilabel Reader (Perkin Elmer); for each sample, the obtained signal was normalized on the number of viable cells, detected by the CellTiterGlo reagent.

Row | SMILES | EC50 (BRC4/RAD51 interaction) | EC50 (BxPC-3 cells [1]) | inhibition at 20 µM [2] | inhibition at 40 µM ([2]; BXPC-3, at 40 μM) | Olaparib Assoc. (BxPC-3 cells [3]) | inhibition at 5 µM ([2]; BXPC-3, at 5 μM)
1 | O=C(O)CCC(=O)N1N=C(c2c(-c3ccccc3)c3cc(Cl)ccc3[nH]c2=O)CC1c1cccnc1 (stereo not drawn) [d.98, 4-(3-(6-chloro-2-oxo-4-phenyl-1,2-dihydroquinolin-3-yl)-5-(pyridin-3-yl)-4,5-dihydro-1H-pyrazol-1-yl)-4-oxobutanoic acid] | 75 µM | 144 µM | 22% |  |  | 
2 | CCn1cc2cc(-c3ccc(C4CC(c5c(-c6ccccc6)c6cc(Cl)ccc6[nH]c5=O)=NN4C(=O)CCC(=O)O)cc3)ccc2n1 (stereo not drawn) [d.46, 4-[5-(6-chloro-2-oxo-4-phenyl-1H-quinolin-3-yl)-3-[4-(2-ethylindazol-5-yl)phenyl]-3,4-dihydropyrazol-2-yl]-4-oxo-butanoic acid] | 17 µM | 44 µM |  | 91.7% | synergy | 
3 | Cn1ccc2cc(C3CC(c4c(-c5ccccc5)c5cc(Cl)ccc5[nH]c4=O)=NN3C(=O)CCC(=O)O)ccc21 (stereo not drawn) [d.22, 4-[5-(6-chloro-2-oxo-4-phenyl-1H-quinolin-3-yl)-3-(1-methylindol-5-yl)-3,4-dihydropyrazol-2-yl]-4-oxo-butanoic acid] | 2 µM | > 20 µM |  |  | synergy | 
4 | CCCn1ncc2cc(C3CC(c4c(-c5ccccc5)c5cc(Cl)ccc5[nH]c4=O)=NN3C(C)=O)ccc21 (stereo not drawn) [d.34, 3-[2-acetyl-3-(1-propylindazol-5-yl)-3,4-dihydropyrazol-5-yl]-6-chloro-4-phenyl-1H-quinolin-2-one] | 0.95 µM | 11 µM |  |  |  | 83%
5 | COc1ccc(C2CC(c3c(Cc4ccccc4)c4cc(Cl)ccc4[nH]c3=O)=NN2C(=O)CCC(=O)O)cc1F (stereo not drawn) [d.66, 4-[5-(4-benzyl-6-chloro-2-oxo-1H-quinolin-3-yl)-3-(3-fluoro-4-methoxy-phenyl)-3,4-dihydropyrazol-2-yl]-4-oxo-butanoic acid] | 25 µM | 79.2 µM | 6.15% |  |  | 
6 | CCCn1ncc2cc(C3CC(c4c(-c5ccccc5)c5cc(Cl)ccc5[nH]c4=O)=NN3C(=O)CCC(=O)O)ccc21 (stereo not drawn) [d.33, 4-[5-(6-chloro-2-oxo-4-phenyl-1H-quinolin-3-yl)-3-(1-propylindazol-5-yl)-3,4-dihydropyrazol-2-yl]-4-oxo-butanoic acid] | > 100 µM | > 100 µM |  |  |  | 
7 | CC(=O)N1N=C(c2c(-c3ccccc3)c3cc(Cl)ccc3[nH]c2=O)CC1c1ccco1 (stereo not drawn) [d.21, 3-[2-acetyl-3-(2-furyl)-3,4-dihydropyrazol-5-yl]-6-chloro-4-phenyl-1H-quinolin-2-one] | > 100 µM | 23 µM |  |  |  | 
8 | CCC(=O)N1N=C(c2c(-c3ccccc3)c3cc(Cl)ccc3[nH]c2=O)CC1c1ccccc1 (stereo not drawn) [d.48, 6-chloro-4-phenyl-3-(3-phenyl-2-propanoyl-3,4-dihydropyrazol-5-yl)-1H-quinolin-2-one] | 24 µM | 13.7 µM |  |  |  | 
9 | CCCn1cc(-c2ccc(C3CC(c4c(-c5ccccc5)c5cc(Cl)ccc5[nH]c4=O)=NN3C(=O)CCC(=O)O)cc2)cn1 (stereo not drawn) [d.43, 4-[5-(6-chloro-2-oxo-4-phenyl-1H-quinolin-3-yl)-3-[4-(1-propylpyrazol-4-yl)phenyl]-3,4-dihydropyrazol-2-yl]-4-oxo-butanoic acid] | 65 µM | 74.2 µM |  |  |  | 
10 | CC(=O)N1N=C(c2c(-c3ccccc3)c3cc(Cl)ccc3[nH]c2=O)CC1c1ccc(-c2ccc(Br)cc2)cc1 (stereo not drawn) [d.40, 3-[2-acetyl-3-[4-(4-bromophenyl)phenyl]-3,4-dihydropyrazol-5-yl]-6-chloro-4-phenyl-1H-quinolin-2-one] | 45 µM | 28 µM |  |  |  | 
11 | CC(=O)N1N=C(c2c(-c3ccccc3)c3cc(Cl)ccc3[nH]c2=O)CC1c1ccc2c(cnn2C)c1 (stereo not drawn) [d.27, 3-[2-acetyl-3-(1-methylindazol-5-yl)-3,4-dihydropyrazol-5-yl]-6-chloro-4-phenyl-1H-quinolin-2-one] | 9 µM | 21 µM |  |  |  | 
12 | O=C(O)CCC(=O)N1N=C(c2c(Cc3ccccc3)c3cc(Cl)ccc3[nH]c2=O)CC1c1ccc(-c2ccc(Cl)cc2)cc1 (stereo not drawn) [d.84, 4-[5-(4-benzyl-6-chloro-2-oxo-1H-quinolin-3-yl)-3-[4-(4-chlorophenyl)phenyl]-3,4-dihydropyrazol-2-yl]-4-oxo-butanoic acid] | 90 µM | 28.4 µM | 21.7% |  |  | 
13 | O=C(O)CCC(=O)N1N=C(c2c(-c3ccccc3)c3cc(Cl)ccc3[nH]c2=O)CC1c1ccc(Br)cc1 (stereo not drawn) [d.8, 4-[3-(4-bromophenyl)-5-(6-chloro-2-oxo-4-phenyl-1H-quinolin-3-yl)-3,4-dihydropyrazol-2-yl]-4-oxo-butanoic acid] | 16 µM | 48 µM |  |  |  | 
